How the values were obtained:
[1] = tested on: B. cepcacia complex (not further speciated); assay: microbe, parasite or virus in culture; assay type: cell-based, Burkholderia cepacia complex; conditions: Burkholderia cepacia
[2] = tested on: Pseudomonas aeruginosa; assay type: in vivo, Sprague Dawley rats; conditions: rats, single dose of BisEDT, by Day 5
Method: The efficacy of BisEDT in reducing pulmonary bacterial burden associated with pulmonary infection in a rat model of pulmonary Pseudomonas aeruginosa infection was evaluated. The results follow.
Conclusion: Animals were divided into four experiment inhalational treatment groups: 1) Group 1, a negative control group treated with saline on Days 0, 2, and 4; 2) Group 2, a positive control group treated with tobramycin (target of 20 mg/kg, BID, Days 1-4); 3) Group 3, BisEDT (target of 0.1 mg/kg, QD, Days 0, 2, 4); and Group 4, BisEDT (target of 0.25 mg/kg, once, Day −1). Animals were further divided into two cohorts, separated by one day, to accommodate the challenge and treatment of the number of animals. All animals were exposed per protocol except Group 1 and 3, cohort 2. These animals were exposed on Days 0, 1, and 4 instead of on Days 0, 2, 4.
An in vivo efficacy study was designed to assess the efficacy of inhaled BisEDT in a chronic model of P. aeruginosa pulmonary infection. […] Animals were euthanized at Study Day 3 and 5 and assessed for level of pulmonary bacterial burden. […]

Compound | MIC ([1]; strain BC 9) | MIC ([1]; strain PC 213) | efficacy vs tobramycin positive control group [2]
CC(S)C(C)S.[Bi] (stereo not drawn) [BisBDT, bismuth-2,3-butanedithiol] | 0.5 µg/mL | 1 µg/mL | –
C1C[S][Bi]([S]CC[S][Bi]2[S]CC[S]2)[S]1 [BisEDT, Bismuth-1,2-ethanedithiol] | – | – | not significantly different

Reference: patent US20230124862A1, “BISMUTH THIOL COMPOUNDS AND COMPOSITIONS AND METHODS OF TREATING MICROBIAL CO-INFECTIONS” (Microbion Corporation, priority 2020, published 2023)
